Patent US20220062317A1, “NA+/K+ ATPASE INHIBITORS FOR USE IN THE PREVENTION OR TREATMENT OF METASTASIS” (UNIVERSITÄT BASEL, priority 2018, published 2022)
Values joined by “and” are separate entries in the source; they are usually repeats but may differ in a detail not shown here. Equal values may be shown once.

Experiments:
BRx50 CTC cell line = test: 17-day treatment, WGBS and i-cisTarget analysis of DMRs that gain methylation; format: cell-based, human; details: 20 nM
Method: (§1) In order to assess the effect of clustering on DNA methylation patterns and proliferation signature directly BR16 and BRx50 cell lines were cultured for 17 days to ensure that at least 4 divisions would take place. This is to allow proper time for DNA methylation remodeling to take place.
(§2) Under these conditions, for both CTC derived cell lines, a subset of cluster-associated hypomethylated DMRs from patient and xenografts regain ≥20% methylation.
(§3) Proteinase K digestion and bisulfite treatment was performed according to manufacturer's instructions for EZ DNA Methylation Direct Kit (Zymo, Cat #D5020). Bisulfite-treated DNA was eluted using 9 μl of Elution Buffer and used for library generation with TruSeq DNA methylation kit (Illumina, Cat #EGMK91396) according to manufacturer's instructions. For amplification, 18 cycles were performed using Failsafe Enzyme (Illumina, Cat #FSE51100) and indexes were introduced with Index Primers' Kit (Illumina, Cat #EGIDX81312). Library purification was performed using Agencourt AMPure XP beads at a ratio of 1:1 according to manufacturer's instructions. To avoid DNA loss during pipetting steps, Corning DeckWork low binding barrier pipet tips were used (Sigma, Cat #CLS4135-4X960EA). Library concentration was estimated using Qubit DS DNA HS Assay Kit according to manufacturer's instructions (Invitrogen, Cat #Q32854).
(§4) An enrichment score (ES) indicates the over- or underrepresentation of a certain object within a sample of many objects (=enrichment). […] A negative enrichment score indicates the opposite, namely that a feature is less present than to be expected by the values of other features in the sample. […] An enrichment score can be normalized by dividing a specific ES by the mean of the enrichment scores for all objects in the dataset to yield a normalized enrichment score (NES). Normalization of the enrichment score accounts for differences in gene set size and in correlations between gene sets and the expression dataset; therefore, a normalized enrichment scores (NES) can be used to compare analysis results across gene sets. Only TFBS with a NES score […] shown in the analysis.

BR16 CTC cell line = test: as above; format: cell-based, human; details: 20 nM, 17-day treatment
Method: as §1, §2, §3, §4

[1] = test system: BRx50 human CTC-derived cells; test: FDA-approved compound screen for CTC cluster dissociation (high content imaging); format: cell-based; details: even at lowest concentration tested (0.1 μM)
BR16 CTC-derived cells = test: as above; format: cell-based, human; details: even at lowest concentration tested (0.1 μM), 2 days, hypoxia
Method: In order to identify actionable vulnerabilities of CTC clusters, and to test whether the epigenetic and transcriptional features of clustered CTCs are reversible upon cluster dissociation into single cells the following steps were undertaken. First, the expression of all known cell-cell junction (CCJ) components in patient samples obtained from normal breast (TGCA REF), breast cancer (TOGA REF), single CTCs and CTC clusters were assessed (Aceto et al. Cell 2014). While breast cancer cells tend to only partially reduce their CCJ repertoire compared to normal breast cells, CTCs express only a small fraction of CCJ components, likely as a consequence to their increased motility. Yet, CTC clusters retain a higher number of CCJs as compared to single CTCs. […] To this end, 2′486 FDA-approved compounds were evaluated for their ability to dissociate clusters of human breast CTC-derived cells. Cluster dissociation was assessed using a high content screening microscope and comparing cells treated with each individual compound to steady state clustered BR16 cells and 40 μm-filtered BR16 single cell suspension as negative and positive controls, respectively (FIG. 4a). […] For the majority of the 2′486 FDA-approved compounds, when using a 5 μM concentration for 2 days in hypoxic conditions, no detectable reduction in cell viability (>70% viability) nor mean cluster size (>450 μm2) in BR16 CTC-derived cells was observed. […] These compounds include inhibitors of Na^+/K^+ ATPases (n=6), HDACs (n=2), nucleotide biosynthesis (n=5), kinases (n=4), GPCRs (n=2), cholesterol biosynthesis (n=1), nuclear export (n=1), tubulin (n=9), as well as DNA binding compounds (n=8) and antibiotics (n=1).
A library containing 2,486 FDA-approved compounds was purchased from the Nexus Platform ETH Zurich. Each compound was resuspended using CTC medium at a 15 μM concentration and 20 μl were aliquoted in duplicate in a total of 64 Flat Bottom Clear Ultra Low attachment 96-well plates (Corning, Cat #3474).
To reduce cluster size in CTC derived cell lines, a 40 μm cell strainer was used (Corning, Cat #431750). […] Plates were incubated in hypoxia (5% oxygen) for 2 days and then 20 μl were transferred into a 96 well Black/clear Tissue culture treated plate (BD Falcon, Cat #353219) containing 40 μl of D-PBS (Invitrogen, Cat #14190169) and stained for 1 hr at 37° C. with a final concentration of 4 μM Hoechst 34580 (Invitrogen, Cat #H21486), 2 μM TMRM (Invitrogen, Cat #T668) and 4 μM TOTO-3 (Invitrogen, Cat #T3604). For each plate, two positive controls (non-treated cells) and two negative controls (non-treated and […] cells) were included. Z-factors were calculated per individual plate using the following formula: Z′=1−3(σs+σc)/|μs−μc|^3 (σ: standard deviation, μ: mean, s: positive control and c: negative control) (Martin et al., PLoS One 9, e88338, 2014) and ranged between 0.62-0.937. Plates were scanned using Operetta High Content Imaging System (Perkin Elmer) and cluster analysis was performed using Harmony High Content Imaging and Analysis Software (Perkin Elmer).

BR16 cells = test: Tail vein injection of in vitro pre-treated BR16 cells, metastasis seeding; format: in vivo, NSG mice
Method: To test whether ouabain and digitoxin would also enable CTC clusters disruption in vivo, the inventors took a dual approach. First, the inventors tested whether a 17-day in vitro treatment with ouabain and digitoxin would translate into a reduced ability of the treated cells to efficiently seed metastasis in untreated mice (FIG. 7A). To this end, upon treatment, BR16 cells stably expressing GFP-luciferase were injected into the tail vein of NSG mice and noninvasively monitored through luminescence imaging for their ability to seed and propagate metastatic lesions.
For tail vein experiments, NOD SCID Gamma (NSG) mice (Jackson Labs) were injected with 1×10^6 BR16-mCherry cells resuspended in 100 μl D-PBS and monitored with IVIS Lumina II (Perkin Elmer). For CTC xenograft mouse model isolation, 1×10^6 LM2-GFP, 1×10^6 BRx50-GFP or 1×10^6 BR16-GFP cells were resuspended in 100 μl of 50% Cultrex PathClear Reduced Growth Factor Basement Membrane Extract (R&D Biosystems, Cat #3533-010-02) in D-PBS and injected orthotopically in NSG mice. Blood draw was performed 4-5 weeks after tumor onset for LM2 cells, 5-6 months after tumor onset for BR16 and 6-7 months after tumor onset for BRx50 cells.

## C[C@H]1O[C@@H](O[C@H]2[C@@H](O)C[C@H](O[C@H]3[C@@H](O)C[C@H](O[C@H]4CC[C@@]5(C)[C@H](CC[C@@H]6[C@@H]5CC[C@]5(C)[C@@H](C7=CC(=O)OC7)CC[C@]65O)C4)O[C@@H]3C)O[C@@H]2C)C[C@H](O)[C@@H]1O [digitoxin, Digitoxin]
BRx50 CTC cell line
  NES score of TFBS BCL11A in DMRs with ≥20% gain in methylation: 7.65
  NES score of TFBS BDP1 in DMRs with ≥20% gain in methylation: 6.83
  NES score of TFBS BHLHE40/4 in DMRs with ≥20% gain in methylation: 4.61
  NES score of TFBS FOS in DMRs with ≥20% gain in methylation: 4.2 and 3.4
  NES score of TFBS HMBOX1 in DMRs with ≥20% gain in methylation: 3.749
  NES score of TFBS HSF1 in DMRs with ≥20% gain in methylation: 7.2
  NES score of TFBS KDM5D in DMRs with ≥20% gain in methylation: 3.77
  NES score of TFBS LEF1 in DMRs with ≥20% gain in methylation: 3.01
  NES score of TFBS LSM6 in DMRs with ≥20% gain in methylation: 3.05
  NES score of TFBS OCT4 in DMRs with ≥20% gain in methylation: 3.49 and 3.4 and 3.37
  NES score of TFBS POU1F1 in DMRs with ≥20% gain in methylation: 4.02 and 3.98
  NES score of TFBS REST in DMRs with ≥20% gain in methylation: 4.85 and 3.16 and 3.11
  NES score of TFBS STAT3 in DMRs with ≥20% gain in methylation: 3.22
  NES score of TFBS ZKSCAN8 in DMRs with ≥20% gain in methylation: 4.32
  NES score of TFBS ZNF493 in DMRs with ≥20% gain in methylation: 3.88
  number of DMRs with ≥20% gain in methylation: (n = 124)
BR16 CTC cell line
  NES score of TFBS BDP1 in DMRs with ≥20% gain in methylation: 4.18,
  NES score of TFBS CEBPD in DMRs with ≥20% gain in methylation: 3.76
  NES score of TFBS EZH2 in DMRs with ≥20% gain in methylation: 4.63
  NES score of TFBS FOS in DMRs with ≥20% gain in methylation: 6.40 and 3.63 and 3.25
  NES score of TFBS FOXG1/O1 in DMRs with ≥20% gain in methylation: 3.61
  NES score of TFBS IRX3 in DMRs with ≥20% gain in methylation: 5
  NES score of TFBS IRX6 in DMRs with ≥20% gain in methylation: 5 and 3.67
  NES score of TFBS KDM5A in DMRs with ≥20% gain in methylation: 4.355
  NES score of TFBS MEIS1 in DMRs with ≥20% gain in methylation: 3.11
  NES score of TFBS RORA in DMRs with ≥20% gain in methylation: 4.93 and 3.45
  NES score of TFBS SOX2 in DMRs with ≥20% gain in methylation: 3.22
  NES score of TFBS SOX18 in DMRs with ≥20% gain in methylation: 3.99 and 3.91
  NES score of TFBS STAT3 in DMRs with ≥20% gain in methylation: 3.31
  NES score of TFBS YAP5 in DMRs with ≥20% gain in methylation: 5.4 and 5.32 and 4.56
  NES score of TFBS ZNF92 in DMRs with ≥20% gain in methylation: 3.44
  number of DMRs with ≥20% gain in methylation: (n = 150)
[1]
  mean cluster size: significant decrease in mean cluster size
BR16 CTC-derived cells
  mean cluster size: significant decrease in mean cluster size
BR16 cells; cancer cells in lungs, pre-treated cells, day 1
  expression of cleaved caspase 3 compared to control cells: significant increase
BR16 cells; cells pre-treated 17 days in vitro, 20 nM, tail vein, day 0
  ability of BR16 cells to lodge in the lung tissue immediately after injection (bioluminescence flux): did not affect
BR16 cells; cells pre-treated 17 days in vitro, 20 nM, tail vein, day 1
  ability to survive during the first day upon arrival (bioluminescence flux): reduced ability to survive
BR16 cells; pre-treated cells, no further treatment in vivo, 72 days upon injection
  metastatic outgrowth: delayed metastatic outgrowth
